In brackets after ≈: the same amount, converted by molar mass.
Legend:
Experiment in all cases: Antifungal MIC, broth dilution
[1] = tested on: A. niger ATCC 16404; assay type: cell-based, Aspergillus niger; settings: end point 48 hours; for An01 MIC50: RPMI 1640 with MOPS; for MIC50: Aspergillus niger, ATCC16404, RPMI 1640 with MOPS, read-out: An01 MIC50
Experimental: (§1) The compounds of Formula 1 were tested for antifungal activity against Candida albicans, Aspergillus niger and Fusarium proliferatum. In vitro evaluation of antifungal activity was performed by determining the minimum inhibitory concentration (MIC) following standard methods (CLSI: Reference method for broth dilution antifungal susceptibility testing of yeasts; Approved standard, second edition M27-A2, 2002; CLSI: Reference method for broth dilution antifungal susceptibility testing of filamentous fungi; Approved standard M38-A, 2002). Anti-fungal susceptibility testing of these anti-fungal compounds was done by broth dilution method using RPMI 1640 medium with MOPS buffer. Known anti-fungal agents like fluconazole and amphotericin-B were used as positive control. End points were determined after 48 hours visually and by using spectrophotometer wherever necessary. Different dilutions were tried and various sets of experiments performed. The activity parameters are enumerated in Table 5.

[2] = tested on: C. albicans ATCC 24433; assay type: cell-based, Candida albicans; settings: end point 48 hours; for Ca01 A: MIC80 / Ca01 B: MIC50: RPMI 1640 with MOPS; for MIC80 / MIC50: Candida albicans, ATCC24433, RPMI 1640 with MOPS; for MIC80: read-out: Ca01 A: MIC80; for MIC50: read-out: Ca01 B: MIC50
Experimental: as §1

[3] = tested on: A. fumigatus ATCC 46645; assay type: cell-based; settings: end point 48 hours; for Afm01 MIC50: RPMI 1640 with MOPS; for MIC50: Aspergillus fumigatus, ATCC46645, RPMI 1640 with MOPS, read-out: Afm01 MIC50
[4] = tested on: C. neoformans ATCC 34664; assay type: cell-based; settings: end point 48 hours; for Cn01 MIC50: RPMI 1640 with MOPS; for MIC50: Cryptococcus neoformans, ATCC34664, RPMI 1640 with MOPS, read-out: Cn01 MIC50
[5] = tested on: C. tropicalis ATCC 750; assay type: cell-based; settings: end point 48 hours; for Ct01 MIC50: RPMI 1640 with MOPS; for MIC50: Candida tropicalis, ATCC750, RPMI 1640 with MOPS, read-out: Ct01 MIC50
[6] = tested on: C. krusei ATCC 6258; assay type: cell-based; settings: end point 48 hours; for Ck01 MIC50: RPMI 1640 with MOPS; for MIC50: Pichia kudriavzevii, ATCC6258, RPMI 1640 with MOPS, read-out: Ck01 MIC50
[7] = tested on: F. proliferatum ATCC 10052; assay type: cell-based, Fusarium proliferatum; settings: end point 48 hours; for Fp01 MIC50: RPMI 1640 with MOPS; for MIC50: Fusarium proliferatum, ATCC10052, RPMI 1640 with MOPS, read-out: Fp01 MIC50
Experimental: as §1

[8] = tested on: C. glabrata ATCC 90030; assay type: cell-based; settings: end point 48 hours; for Cg01 MIC50: RPMI 1640 with MOPS; for MIC50: Nakaseomyces glabratus, ATCC90030, RPMI 1640 with MOPS, read-out: Cg01 MIC50

Row | SMILES | An01 MIC50 [1] | Ca01 A: MIC80 [2] | Ca01 B: MIC50 [2] | Afm01 MIC50 [3] | Cn01 MIC50 [4] | Ct01 MIC50 [5] | Ck01 MIC50 [6] | Fp01 MIC50 [7] | Cg01 MIC50 [8] | MIC50 [1] | MIC80 [2] | MIC50 [2] | MIC50 [3] | MIC50 [4] | MIC50 [5] | MIC50 [6] | MIC50 [7] | MIC50 [8]
1 | C[C@@H]1[C@H](O)[C@@H](C)/C=C/C=C/C=C/C=C/C=C/C=C/C=C/[C@H](O[C@@H]2O[C@H](C)[C@@H](O)[C@H](N)[C@@H]2O)C[C@@H]2O[C@](O)(C[C@@H](O)C[C@@H](O)[C@H](O)CC[C@@H](O)C[C@@H](O)CC(=O)O[C@H]1C)C[C@H](O)[C@H]2C(=O)O [AMB, amphotericin-B, reference compound] | 0.25 µg/mL | 0.25 µg/mL | 0.25 µg/mL | 0.5 µg/mL | 0.5 µg/mL | 0.5 µg/mL | 0.5 µg/mL | 2 µg/mL | 0.25 µg/mL | – | – | – | – | – | – | – | – | –
2 | O=C(/C=C/c1ccccc1)c1ccc(OCC(O)(Cn2cncn2)c2ccc(F)cc2F)cc1 (stereo not drawn) [Compound 1A-1] | – | – | – | – | – | – | – | – | – | > 2 µg/mL | 0.12 µg/mL (≈ 0.26 µM) | 0.06 µg/mL (≈ 0.13 µM) | > 2 µg/mL | 1 µg/mL (≈ 2.17 µM) | 0.5 µg/mL (≈ 1.08 µM) | > 2 µg/mL | > 2 µg/mL | 0.25 µg/mL (≈ 0.542 µM)
3 | COc1ccc(/C=C/C(=O)c2ccc(OCC(O)(Cn3cncn3)c3ccc(F)cc3F)cc2)cc1 (stereo not drawn) [Compound 1A-2] | – | – | – | – | – | – | – | – | – | 4 µg/mL (≈ 8.14 µM) | 0.12 µg/mL (≈ 0.244 µM) | 0.06 µg/mL (≈ 0.122 µM) | > 4 µg/mL | 1 µg/mL (≈ 2.03 µM) | 0.25 µg/mL (≈ 0.509 µM) | 4 µg/mL (≈ 8.14 µM) | > 4 µg/mL | 0.25 µg/mL (≈ 0.509 µM)
4 | COc1ccccc1/C=C/C(=O)c1ccc(OCC(O)(Cn2cncn2)c2ccc(F)cc2F)cc1 (stereo not drawn) [Compound 1A-3] | – | – | – | – | – | – | – | – | – | > 8 µg/mL | 0.5 µg/mL (≈ 1.02 µM) | 0.25 µg/mL (≈ 0.509 µM) | > 8 µg/mL | 8 µg/mL (≈ 16.3 µM) | 2 µg/mL (≈ 4.07 µM) | > 8 µg/mL | > 8 µg/mL | 0.5 µg/mL (≈ 1.02 µM)
5 | COc1cc(/C=C/C(=O)c2ccc(OCC(O)(Cn3cncn3)c3ccc(F)cc3F)cc2)cc(OC)c1 (stereo not drawn) [Compound 1A-4] | – | – | – | – | – | – | – | – | – | > 4 µg/mL | 1 µg/mL (≈ 1.92 µM) | 0.25 µg/mL (≈ 0.479 µM) | > 4 µg/mL | 2 µg/mL (≈ 3.83 µM) | 2 µg/mL (≈ 3.83 µM) | > 4 µg/mL | > 4 µg/mL | 2 µg/mL (≈ 3.83 µM)
6 | COc1cc(/C=C/C(=O)c2ccc(OCC(O)(Cn3cncn3)c3ccc(F)cc3F)cc2)cc(OC)c1OC (stereo not drawn) [Compound 1A-5] | – | – | – | – | – | – | – | – | – | > 4 µg/mL | 1 µg/mL (≈ 1.81 µM) | 0.25 µg/mL (≈ 0.453 µM) | > 4 µg/mL | > 4 µg/mL | 1 µg/mL (≈ 1.81 µM) | > 4 µg/mL | > 4 µg/mL | 1 µg/mL (≈ 1.81 µM)
7 | O=C(/C=C/c1ccc(Cl)cc1)c1ccc(OCC(O)(Cn2cncn2)c2ccc(F)cc2F)cc1 (stereo not drawn) [Compound 1A-6] | – | – | – | – | – | – | – | – | – | > 4 µg/mL | 0.25 µg/mL (≈ 0.504 µM) | 0.5 µg/mL (≈ 1.01 µM) | > 4 µg/mL | 0.5 µg/mL (≈ 1.01 µM) | 0.5 µg/mL (≈ 1.01 µM) | 2 µg/mL (≈ 4.03 µM) | > 4 µg/mL | 0.5 µg/mL (≈ 1.01 µM)
8 | O=C(/C=C/c1ccc(Cl)cc1Cl)c1ccc(OCC(O)(Cn2cncn2)c2ccc(F)cc2F)cc1 (stereo not drawn) [Compound 1A-7, (E)-3-(2,4-dichlorophenyl)-1-(4-(2-(2,4-difluorophenyl)-2-hydroxy-3-(1H-1,2,4-triazol-1-yl)propoxy)phenyl)prop-2-en-1-one] | – | – | – | – | – | – | – | – | – | > 4 µg/mL | 0.25 µg/mL (≈ 0.471 µM) | 0.25 µg/mL (≈ 0.471 µM) | > 4 µg/mL | 2 µg/mL (≈ 3.77 µM) | 1 µg/mL (≈ 1.89 µM) | 2 µg/mL (≈ 3.77 µM) | > 4 µg/mL | 0.5 µg/mL (≈ 0.943 µM)
9 | O=C(/C=C/c1ccccc1F)c1ccc(OCC(O)(Cn2cncn2)c2ccc(F)cc2F)cc1 (stereo not drawn) [Compound 1A-8] | – | – | – | – | – | – | – | – | – | > 4 µg/mL | 0.12 µg/mL (≈ 0.25 µM) | 0.12 µg/mL (≈ 0.25 µM) | > 4 µg/mL | 2 µg/mL (≈ 4.17 µM) | 0.5 µg/mL (≈ 1.04 µM) | 4 µg/mL (≈ 8.34 µM) | > 4 µg/mL | 0.25 µg/mL (≈ 0.521 µM)
10 | CCCCCCCCOc1ccc(/C=C/C(=O)c2ccc(OCC(O)(Cn3cncn3)c3ccc(F)cc3F)cc2)cc1 (stereo not drawn) [Compound 1A-9] | >2 µg/mL | >2 µg/mL | >2 µg/mL | >2 µg/mL | >2 µg/mL | >2 µg/mL | >2 µg/mL | >2 µg/mL | >2 µg/mL | – | – | – | – | – | – | – | – | –
11 | COc1ccc(/C=C/C(=O)c2ccc(OCC(O)(Cn3cncn3)c3ccc(F)cc3)cc2)cc1 (stereo not drawn) [Compound 1A-10] | – | – | – | – | – | – | – | – | – | > 4 µg/mL | 2 µg/mL (≈ 4.22 µM) | 0.25 µg/mL (≈ 0.528 µM) | > 4 µg/mL | 0.5 µg/mL (≈ 1.06 µM) | 4 µg/mL (≈ 8.45 µM) | 4 µg/mL (≈ 8.45 µM) | > 4 µg/mL | 0.5 µg/mL (≈ 1.06 µM)
12 | COc1ccc(/C=C/C(=O)c2ccc(OCC(O)(Cn3cncn3)c3ccc(Br)cc3)cc2)cc1 (stereo not drawn) [Compound 1A-11] | – | – | – | – | – | – | – | – | – | > 4 µg/mL | 1 µg/mL (≈ 1.87 µM) | 0.5 µg/mL (≈ 0.936 µM) | > 4 µg/mL | 1 µg/mL (≈ 1.87 µM) | > 4 µg/mL | > 4 µg/mL | > 4 µg/mL | 1 µg/mL (≈ 1.87 µM)
13 | O=C(/C=C/c1ccc(Cl)cc1)c1ccc(OCC(O)(Cn2cncn2)c2ccc(F)cc2)cc1 (stereo not drawn) [Compound 1A-12] | – | – | – | – | – | – | – | – | – | > 4 µg/mL | 2 µg/mL (≈ 4.18 µM) | 0.5 µg/mL (≈ 1.05 µM) | > 4 µg/mL | 0.5 µg/mL (≈ 1.05 µM) | 4 µg/mL (≈ 8.37 µM) | 4 µg/mL (≈ 8.37 µM) | > 4 µg/mL | 0.5 µg/mL (≈ 1.05 µM)
14 | O=C(/C=C/c1cccs1)c1ccc(OCC(O)(Cn2cncn2)c2ccc(F)cc2F)cc1 (stereo not drawn) [Compound 1A-13] | – | – | – | – | – | – | – | – | – | > 8 µg/mL | 0.25 µg/mL (≈ 0.535 µM) | 0.12 µg/mL (≈ 0.257 µM) | > 8 µg/mL | 1 µg/mL (≈ 2.14 µM) | 0.5 µg/mL (≈ 1.07 µM) | 8 µg/mL (≈ 17.1 µM) | > 8 µg/mL | 0.25 µg/mL (≈ 0.535 µM)
15 | O=C(/C=C/c1ccc2ccccc2c1)c1ccc(OCC(O)(Cn2cncn2)c2ccc(F)cc2F)cc1 (stereo not drawn) [Compound 1A-14] | – | – | – | – | – | – | – | – | – | > 4 µg/mL | 0.5 µg/mL (≈ 0.977 µM) | 0.25 µg/mL (≈ 0.489 µM) | > 4 µg/mL | 0.5 µg/mL (≈ 0.977 µM) | 0.5 µg/mL (≈ 0.977 µM) | 1 µg/mL (≈ 1.95 µM) | > 4 µg/mL | 0.5 µg/mL (≈ 0.977 µM)
16 | O=C(/C=C/c1c2ccccc2cc2ccccc12)c1ccc(OCC(O)(Cn2cncn2)c2ccc(F)cc2F)cc1 (stereo not drawn) [Compound 1A-15] | – | – | – | – | – | – | – | – | – | > 2 µg/mL | > 2 µg/mL | > 2 µg/mL | > 2 µg/mL | 2 µg/mL (≈ 3.56 µM) | > 2 µg/mL | > 2 µg/mL | > 2 µg/mL | 2 µg/mL (≈ 3.56 µM)
